Measured values taken from patent publication US5001158A, “Nitrosoureas compounds preparation thereof and utilization thereof in anticancerous” (Centre National de la Recherche Scientifique, priority 1990, dated 1991).

Key:
[1] = Plasma concentrations of A1 and A2 after oral administration, mice; format: in vivo; details: mouse, n = 10; for concentration at 1.5 h: 1 H 30 MIN; for concentration: 3 H; for concentration at 4.5 h: 4 H 30 MIN; for concentration at 0.25 h: 15 MIN; for concentration at 0.5 h: 30 MIN; for concentration at 0.75 h: 45 MIN
Experimental: (§1) The plasma absorption and clearance kinetics of the products A1 and A2 according to the invention were studied on different animal species after oral administration. A mixture A1 A2 in the proportions 70%/30% was used so as to be able to make a comparison with CNCC. The mixture A1 A2 and the CNCC were administered at equivalent doses and the plasma concentrations of A1 and A2 were measured as a function of time. cl (a) Experimental protocol
(§2) A solution of the mixture A1 A2 in distilled water is administered by stomach tube at a dose of 574 mg/m^2. A suspension of CNCC in olive oil is administered at a dose of 500 mg/m^2, also by stomach tube.
(§3) The blood, taken by cardiac puncture, is centrifuged rapidly at 4° C. The plasma (1 ml) is deposited on a cartridge of Extrelut® and extraction is carried out with 6 ml of methylene chloride. After evaporation, the dry extract is taken up in 150 μl of methylene chloride for chromatographic analysis.
(§4) Analysis of the plasma extracts for measuring the concentrations of A1 and A2 was performed by high performance liquid chromatography using the following technology:
(§5) Detector: Pye Unicam spectrophotometer (Philips)λ250 nm.
(§6) Elution carried out by means of a linear gradient ranging from methylene chloride 99.6%/ethanol 0.4% to methylene chloride 95%/ethanol 5% in 15 minutes

[2] = Plasma concentrations of A1 and A2 after oral administration, rabbits; format: in vivo; details: rabbit, n = 5; for concentration at 1.5 h: 1 H 30 MIN; for concentration: 3 H; for concentration at 4.5 h: 4 H 30 MIN; for concentration at 0.25 h: 15 MIN; for concentration at 0.5 h: 30 MIN; for concentration at 0.75 h: 45 MIN
Experimental: as §1, §2, §3, §4, §5, §6

[3] = system: leukemia L 1210; test: Antitumoral activity of A1 and A2 on leukemia L 1210 grafted i.p. in mice (ICIG); format: in vivo, mice (B6 D2 F1 OLA)
Experimental: This activity was also studied on mice carrying leukemia L 1210 grafted i.p. This experimental tumor is the one most frequently used in the primary screening of cytostatic drugs.
These tests were conducted in parallel in two laboratories: at Unit 71 of the Institut National de la Sante et de la Recberche Mediecale (INSERM), ClermontFerrand, and at the Institut de Cancerologie et d' Immunogenetique (ICIG), Villejuif.
On day D:0, three-month-old male B6 D2 F1 mice received 10^5 cells of the leukemia strain L 1210 by intraperitoneal administration. The animals are divided up into groups of 8 to 10 animals for the control groups and 6 to 8 animals for the treated groups. On days D:1, D:5 and D:9, the animals receive the treatment at different doses by intraperitoneal or intravenous administration. The CNCC is administered as a suspension in olive oil. The products according to the invention are administered in physiological serum. The mortality is recorded every day. The survival median was determined for the treated animals and the control animals. The results are considered to be positive if the index I= [formula] is greater than 125.
The value .infin. means that 50% to 100% of the animals have survived to day D:90.
The cytostatic activity oi A1 and A2 on leukemia L 1210 was evaluated on B6 D2 F1 OLA mice at ICIG.
ICIG also studied the antitumoral activity of each isomer A1 and A2, separately administered intravenously, on leukemia L 1210. […] Comparison of the active doses with those of CNCC is impossible because of the insolubility of CNCC, as mentioned previously.

[4] = Pharmacokinetic comparison of mixture A1 A2 with CNCC, all animal species; format: in vivo, mice, rats and rabbits; details: p.o.
Experimental: as §1, §2, §3, §4
The plasma concentrations of A1 and A2 after oral administration of either the mixture A1 A2 or CNCC to mice, rats and rabbits are reported in Table V.

[5] = Plasma concentrations of A1 and A2 after oral administration, rats; format: in vivo; details: rat, n = 5; for concentration at 1.5 h: 1 H 30 MIN; for concentration: 3 H; for concentration at 0.25 h: 15 MIN; for concentration at 0.5 h: 30 MIN; for concentration at 0.75 h: 45 MIN
Experimental: as §1, §2, §3, §4, §5, §6

[6] = after mixture A1 A2 574 mg/m^2 p.o.

In the case of C[S+]([O-])CCN(N=O)C(=O)NCCCl (centres unmarked) [Compound A1], the concentration at 1.5 h ([1]; after CNCC 500 mg/m^2 p.o.) is reported as 26.2 µM, the concentration at 1 h ([1]; after CNCC 500 mg/m^2 p.o.) is reported as 37.1 µM and the concentration at 2 h ([1]; after CNCC 500 mg/m^2 p.o.) is reported as 20.2 µM. It also gave a concentration ([1]; after CNCC 500 mg/m^2 p.o.) of 11 µM, a concentration at 4.5 h ([1]; after CNCC 500 mg/m^2 p.o.) of 6.5 µM and a concentration at 5 min ([1]; after CNCC 500 mg/m^2 p.o.) of 13.7 µM. For the same compound, the concentration at 0.25 h ([1]; after CNCC 500 mg/m^2 p.o.) was 34.2 µM, the concentration at 0.5 h ([1]; after CNCC 500 mg/m^2 p.o.) was 71.4 µM and the concentration at 0.75 h ([1]; after CNCC 500 mg/m^2 p.o.) was 32.8 µM. The concentration at 1.5 h [1, 6] was 35.4 µM, the concentration at 1 h [1, 6] was 88 µM and the concentration at 2 h [1, 6] was 23.3 µM. The concentration [1, 6] was 10.1 µM, the concentration at 4.5 h [1, 6] was 4.3 µM and the concentration at 5 min [1, 6] was 208 µM. It also gave a concentration at 0.25 h [1, 6] of 206 µM, a concentration at 0.5 h [1, 6] of 177 µM and a concentration at 0.75 h [1, 6] of 124 µM. It also gave a concentration at 1.5 h ([2]; after CNCC 500 mg/m^2 p.o.) of 8.6 µM, a concentration at 2 h ([2]; after CNCC 500 mg/m^2 p.o.) of 7.4 µM and a concentration ([2]; after CNCC 500 mg/m^2 p.o.) of 4.7 µM. The concentration at 4.5 h ([2]; after CNCC 500 mg/m^2 p.o.) was 2.8 µM, the concentration at 5 min ([2]; after CNCC 500 mg/m^2 p.o.) was 5 µM and the concentration at 0.25 h ([2]; after CNCC 500 mg/m^2 p.o.) was 9.4 µM. It also gave a concentration at 0.5 h ([2]; after CNCC 500 mg/m^2 p.o.) of 10.6 µM, a concentration at 0.75 h ([2]; after CNCC 500 mg/m^2 p.o.) of 10 µM and a concentration at 1.5 h [2, 6] of 27 µM. For the same compound, the concentration at 1 h ([2]; after mixture A1 A2 574 mg/m^2 p.o., 1 H) was 39.4 µM, the concentration at 2 h [2, 6] was 19.4 µM and the concentration [2, 6] was 10.6 µM. It also gave a concentration at 4.5 h [2, 6] of 3.8 µM, a concentration at 5 min [2, 6] of 26.7 µM and a concentration at 0.25 h [2, 6] of 28.5 µM. For the same compound, the concentration at 0.5 h [2, 6] was 41 µM, the concentration at 0.75 h [2, 6] was 39.2 µM and the “T/C × 100 (cell: toxic)” value ([3]; 60 mg/kg i.v.) was “toxic”. The “antitumoral activity (in words)” value ([3]; i.v., isomers separately) was “low activity”, the “bioavailability compared with CNCC (in words)” value [4] was “greater than that of CNCC” and the “plasma concentrations after A1 A2 compared with after CNCC (in words)” value ([4]; equivalent doses, whatever the animal species) was “much higher”. The concentration at 1.5 h ([5]; after CNCC 500 mg/m^2 p.o.) was 20.3 µM, the concentration at 1 h ([5]; after CNCC 500 mg/m^2 p.o.) was 18.4 µM and the concentration at 2 h ([5]; after CNCC 500 mg/m^2 p.o.) was 12.7 µM. For the same compound, the concentration ([5]; after CNCC 500 mg/m^2 p.o.) was 11.1 µM, the concentration at 4.5 h ([5]; after CNCC 500 mg/m^2 p.o., 4 H 30 MIN) was 3.9 µM and the concentration at 5 min ([5]; after CNCC 500 mg/m^2 p.o.) was 2.8 µM. It also gave a concentration at 0.25 h ([5]; after CNCC 500 mg/m^2 p.o.) of 8 µM, a concentration at 0.5 h ([5]; after CNCC 500 mg/m^2 p.o.) of 12 µM and a concentration at 0.75 h ([5]; after CNCC 500 mg/m^2 p.o.) of 14.8 µM. It also gave a concentration at 1.5 h [5, 6] of 29.2 µM, a concentration at 1 h [5, 6] of 32.9 µM and a concentration at 2 h [5, 6] of 15.7 µM. For the same compound, the concentration [5, 6] was 7.3 µM, the concentration at 5 min [5, 6] was 22.3 µM and the concentration at 0.25 h [5, 6] was 42.4 µM. The concentration at 0.5 h [5, 6] was 52.9 µM and the concentration at 0.75 h [5, 6] was 33.9 µM.
